Measurements: patent publication US20150094310A1, “CRHR1 ANTAGONISTS FOR USE IN THE TREATMENT OF PATIENTS HAVING CRH OVERACTIVITY” (HOLSBOERMASCHMEYER NEUROCHEMIE GMBH, priority 2012, published 2015)

Tests used:
[1] = system: mice overexpressing CRH in the forebrain; settings: cited from earlier work
CRH-COE^CNS mice = test: REMS activity by EEG/EMG recording in CRH-COE^CNS mice and control littermates; settings: for REMS activity: treatment days vs baseline
Description: (§1) Experiments were conducted with two different mouse lines of excessive central CRH secretion and their respective control littermates (CL). Mice of the CRH-COE^CNS line are characterised by CRH-overexpression within the whole CNS, whereas mice of the Cor26 CRH line display a CRH-overexpression specific to CRH-ergic neurons of the CNS. Three different CRHR1 antagonists were tested. […] In all cases, animals were left to recover from EEG/EMG-electrode implantation for two weeks, after which two days of baseline recording were initiated. Treatment with CRH-R1 antagonist or respective vehicle control commenced thereafter for five consecutive days. Antagonists were applied through the drinking water at a daily dose of 50 mg/kg body weight. EEG and EMG recordings were manually scored as wake, non-REMS (NREMS), and REMS in four second epochs by an experienced evaluator.

Cor26 CRH mice = test: REMS levels by EEG/EMG recording in Cor26 CRH mice and control littermates; settings: for REMS activity / REMS levels: CRH-overexpressing Cor26 CRH mice, 50 mg/kg/d via drinking water
Description: as §1

COCC(COC)Nc1nc(C)nc2c(-c3ccc(Cl)cc3Cl)c(C)nn12 [DMP-696]
REM enhancement [1]: could reverse the REM enhancement | REMS activity in control littermates (CRH-COE^CNS mice; CL (control) mice, 50 mg/kg/d via drinking water): only a mild suppression of REMS | treatment day of strongest suppression of REMS activity (CRH-COE^CNS mice; CRH-COE^CNS mice, 50 mg/kg/d): treatment day three | REMS activity (CRH-COE^CNS mice; CRH-COE^CNS mice, 50 mg/kg/d via drinking water, 50 mg/kg/day): significant decrease in REMS activity | REMS activity (CRH-COE^CNS mice; CRH-COE^CNS mice, 50 mg/kg/d via drinking water, listed as DMP696, 50 mg/kg/day): suppressed

CCC(CC)Oc1cc(C)nc(Oc2c(C)cc(C)cc2C)c1C [CP-316,311]
REMS activity / REMS levels (Cor26 CRH mice; 50 mg/kg/day): apparently seemed weak | REMS activity / REMS levels (Cor26 CRH mice; listed as CP-316311, 50 mg/kg/day): suppressed | REMS levels, area under the curve (AUC) within the light period (Cor26 CRH mice; Cor26 CRH mice, baseline vs treatment day three, P=0.006): significant decrease
